{"source": "patent US9101618B2", "about": "“Method for treating and/or preventing neurodegenerative disease by adiponectin receptor agonist” (TOKYO METROPOLITAN INSTITUTE OF MEDICAL SCIENCE, priority 2011, dated 2015)", "molecules": {"B1": {"name": "gAPN: Globular adiponectin (Prospec); adiponectin isoform whose N-terminal collagen-like domain has been cut by protease (protein, listed as Homo sapiens)", "chain": "PGEGAYVYRSAFSVGLETYVTIPNMPIRFTKIFYNQQNHYDGSTGKFHCNIPGLYYFAYHITVYMKDVKVSLFKKDKAMLFTYDQYQENNVDQASGSVLLHLEVGDQVWLQVYGEGERNGLYADNDNDSTFTGFLLYHDTN", "modifications": "human adiponectin globular domain", "notes": "Globular adiponectin (Prospec); adiponectin isoform whose N-terminal collagen-like domain has been cut by protease"}}, "key": {"GSK-3β (beta)": {"tested_on": "GSK-3β (beta)", "assay": "Addition of p38 MAPK inhibitor and AMPK inhibitor: phospho-GSK-3β western blotting", "format": "cell-based, rat", "settings": "5 μM inhibitor 10 min, then adiponectin 1 μg/mL 30 min", "protocol": "The aforementioned B103 neuroblastoma cells (α (alpha)S) were inoculated on the 6-well plate and cultured to a state of about 80-90% confluence. After washing with PBS, the aforementioned cells were further cultured for 10 min in an inhibition test medium prepared by adding either 5 μM p38 MAPK inhibitor (SB203580, Promega) or 5 μM AMPK inhibitor (Compound C, Calbiochem) to a serum-free medium. As a control, DMSO was added to a serum-free medium instead of the aforementioned inhibitors. Later, either recombinant human adiponectin (1 μg/mL, trimer, PROSPEC) or PBS was added so as to culture the cells for 30 min. The cells collected were then lysed with the aforementioned cell lysis solution. Supernatants were collected after performing centrifugation at 100,000×g for 30 min, and then subjected to western blotting. Here, western blotting was performed in accordance with the procedures described in example 1.\nWhen performing western blotting to evaluate signal transduction pathways, the anti-phospho-GSK-3β (beta) (Ser9) antibody (D85E12, Cell Signaling Technology), the anti-GSK-3β (beta) antibody (BD Biosciences) and the anti-β (beta)-actin mouse monoclonal antibody (C-15, Sigma-Aldrich Japan Inc.) were used as primary antibodies after being appropriately diluted. Further, the HRP labeled anti-mouse IgG antibody (DAKO) was used as a secondary antibody after being appropriately diluted."}, "B103 neuroblastoma cells [1]": {"tested_on": "B103 neuroblastoma cells", "assay": "Induction of adiponectin mRNA expression by proteasome inhibition (RT-PCR)", "format": "cell-based, rat", "settings": "10 μM, six hours, regardless of the presence of α-synuclein expression", "protocol": "RT-PCR was performed in accordance with a method of Fujita et al. (Fujita et al., Nat. Commun. 1:110 (2010)). Total RNA was extracted from the frozen brain samples of the α (alpha)S tg mice and the non tg mice by ISOGEN (NIPPON GENE CO., LTD.), followed by performing DNase (DNase 1, Invitrogen, Life Technologies Japan Ltd.) treatment at 37° C. for 30 min. Here, cDNA was synthesized from the total RNA of 2.5 μg, using Superscript III First-Strand Synthesis system (Invitrogen, Life Technologies Japan Ltd.).\nA reaction condition of PCR was as follows. That is, PCR was at first performed at 94° C. for 5 min, followed by repeating 35 times a cycle of: 95° C. for 30 sec; 55° C. for 30 sec; and 72° C. for 60 sec. Subsequently, PCR was further performed at 72° C. for 10 min before reaching a stationary state and being left standing at 4° C. PCR products were electrophoresed in 1.2% agarose gel. With regard to an mRNA amount of each gene, concentrations of ethidium bromide-stained bands of the PCR products were quantitated by densitometer (ATTO). mRNA amounts of adiponectin were standardized by mRNA amounts of cyclophilin A.\nMG132 (Calbiochem, Merck & Co., Inc.) was used as a proteasome inhibitor. […] Six hours later, the aforementioned cells were collected, and expression of adiponectin mRNA was measured by RT-PCR."}, "[2]": {"tested_on": "B103 neuroblastoma cells (α (alpha)S)", "assay": "Thioflavin T staining of adiponectin siRNA-transduced cells", "format": "cell-based, rat", "settings": "α-synuclein expressing neuroblastoma cells with adiponectin expression suppressed", "protocol": "(§1) Rat adiponectin sense strand RNA: 5′-CAAUGACUCUACAUUUACAtt-3′ (SEQ. No. 15), antisense strand RNA: 5′-UGUAAAUGUAGAGUCAUUGtt-3′ (SEQ. No. 16), sense strand RNA of random sequence in control experiment: 5′-UCUUAAUCGCGUAUAAGGCtt-3′ (SEQ. No. 17) and antisense strand RNA: 5′-GCCUUAUACGCGAUUAAGAtt-3′ (SEQ. No. 18) were prepared utilizing Takara siRNA Design Support System (http://www.takara-bio.co.jp/rnai/) (Takara Bio Inc.). The B103 neuroblastoma cells (α (alpha)S) and the B103 neuroblastoma cells (vector) for the control experiment were cultured using a commercially available 6-well plate, and were transfected using Lipofectamine 2000 (Invitrogen, Life Technologies Japan Ltd.) in a state of 30-50% confluence. After performing transfection for six hours, a medium was replaced with a DMEM containing 10% FBS. After performing cultivation for 24 hours, the medium was then replaced with a serum-free DMEM medium so as to avoid effects of adiponectin. After performing cultivation for another three days, transfected B103 neuroblastoma cells were collected so as to be subjected to a detection of an aggregate state of α (alpha)-synuclein and a measurement of proteasomal activity. Further, transfection to B103 neuroblastoma cells for thioflavin T staining were carried out on a polylysine-coated cover glass. […]"}, "[3]": {"tested_on": "B103 neuroblastoma cells (α (alpha)S)", "assay": "Effect of adiponectin siRNA on aggregate state of α-synuclein (western blotting of soluble fractions)", "format": "cell-based, rat", "settings": "B103 neuroblastoma cells (αS), siRNA transduced, cultivated 72 hours, western blot", "protocol": "as §1, with “activity.” for “activity. Further, transfection to B103 neuroblastoma cells for thioflavin T staining were carried out on a polylysine-coated cover glass.”\nExtraction of each soluble fraction and quantification of protein in each soluble fraction by western blotting were performed in accordance with procedures similar to those of example 1 through example 3."}, "B103 neuroblastoma cells [4]": {"tested_on": "B103 neuroblastoma cells", "assay": "Measurement of proteasomal activity in siRNA-transduced cells", "format": "cell-based, rat", "settings": "compared to cells transduced with siRNA of random sequence", "protocol": "Rat adiponectin sense strand RNA: 5′-CAAUGACUCUACAUUUACAtt-3′ (SEQ. No. 15), antisense strand RNA: 5′-UGUAAAUGUAGAGUCAUUGtt-3′ (SEQ. No. 16), sense strand RNA of random sequence in control experiment: 5′-UCUUAAUCGCGUAUAAGGCtt-3′ (SEQ. No. 17) and antisense strand RNA: 5′-GCCUUAUACGCGAUUAAGAtt-3′ (SEQ. No. 18) were prepared utilizing Takara siRNA Design Support System (http://www.takara-bio.co.jp/rnai/) (Takara Bio Inc.). The B103 neuroblastoma cells (α (alpha)S) and the B103 neuroblastoma cells (vector) for the control experiment were cultured using a commercially available 6-well plate, and were transfected using Lipofectamine 2000 (Invitrogen, Life Technologies Japan Ltd.) in a state of 30-50% confluence. After performing transfection for six hours, a medium was replaced with a DMEM containing 10% FBS. […]\nsiRNA-transduced B103 neuroblastoma cells were collected with HEPES buffer (50 mM HEPES (pH 7.4), 10 mM EDTA, 10 mM NaCl). […] Protein concentrations were measured, and […] thereof was dissolved in HEPES buffer containing 40 μM of benzyloxycarbonyl-Leu-Leu-Glu-amidomethylcoumarin fluorescent proteasome substrate (Chemicon, Japan Millipore Corporation). Proteasomal activity was calculated as follows. That is, a disintegrated amount of substrate was measured by Berthold Mithras LB940 microplate reader (Berthold Japan co. ltd.), according to time for one hour and at 37° C. […]"}, "α (alpha)S tg mouse [5]": {"tested_on": "α (alpha)S tg mouse", "assay": "Continuous nasal administration of globular adiponectin: α-synuclein aggregation in various fractions", "format": "in vivo", "settings": "cerebral cortex, gAPN-administered group", "protocol": "(§2) An α (alpha)S tg mouse and a non tg mouse were distinguished in accordance with the method described in example 2. Globular adiponectin (gAPN) was nasally administered to the α (alpha)S tg mouse and the non tg mouse on days 0, 3, 6, 9, 12, 15, 18 and 21. Further, as a control, PBS was nasally administered to the α (alpha)S tg mouse and the non tg mouse on days 0, 3, 6, 9, 12, 15, 18 and 21. When performing nasal administration, 10 μL of the transmucosal absorption enhancer (PBS containing 5 mg/mL poly-L-arginine hydrochloride (molecular mass>70,000 (Sigma-Aldrich Japan Inc.)) was nasally administered to the mouse. Half an hour later, either 10 μL of globular adiponectin (PBS containing 1 mg/mL gAPN (Prospec)) or 10 μL of PBS was nasally administered to the mouse. On day 22 of nasal administration, the aforementioned mouse was euthanized in accordance with the method described in example 2, followed by collecting brain samples thereof. The hemispheres used for pathological analysis were immersion-fixed using 4% paraformaldehyde, followed by being embedded in paraffin. The other hemispheres used for western blotting were frozen by liquid nitrogen and stored at −80° C.\nThe TBS soluble fraction, the SDS soluble fraction and the formic acid soluble fraction were prepared from the cerebral cortex of the brain sample in accordance with the method described in example 1. […]"}, "α (alpha)S tg mouse [6]": {"tested_on": "α (alpha)S tg mouse", "assay": "Continuous nasal administration of globular adiponectin: immunohistochemical staining of brain", "format": "in vivo", "protocol": "as §2\nImmunohistochemical staining was performed in a standard manner known to those skilled in the art. Briefly, thin sliced sections were prepared at a thickness of 4 μm, using the brain samples embedded in paraffin. After being deparaffinized, the thin sliced sections were placed in a 10 mM sodium citrate buffer solution (pH 6.0) to be subjected to an antigen activation treatment (95° C., 10 min) using microwave (MW). After completing the antigen activation treatment, the thin sliced sections were further treated for 15 min with methanol containing 3% hydrogen peroxide. After washing, the thin sliced sections were then subjected to blocking for 30 min, using 10% goat normal serum (Vector Laboratories, Inc.)/TBS (25 mM Tris-HCl (pH 7.5), 0.15 M NaCl). Later, the thin sliced sections were incubated overnight at 4° C. with a primary antibody (anti-α (alpha)-synuclein antibody or anti-GFAP antibody) diluted with 0.1% bovine serum albumin (BSA)/TBS. After washing, the thin sliced sections were further incubated for 20 min at room temperature with a secondary antibody (biotin labeled anti-mouse IgG antibody (Vector Laboratories, Inc.)) diluted with 0.1% BSA/TBS. When performing staining, there were used ABC kit (Vector Laboratories, Inc.) and 3,3′-diaminobenzidine tetrahydrochloride (DAB). After completing staining, the thin sliced sections were observed using a microscope."}, "α (alpha)S tg mouse [7]": {"tested_on": "α (alpha)S tg mouse", "assay": "Continuous nasal administration of globular adiponectin: GFAP in surfactant insoluble fraction", "format": "in vivo", "settings": "versus gAPN non-administration group", "protocol": "as §2, with “C. […]” for “C.”"}, "[8]": {"settings": "nasal, days 0-21 every 3 days, brain on day 22"}}, "note": "Where a SMILES comes first, the peptide text is derived from it. The star is where a group is joined. Cbz = O=C(OCc1ccccc1)*"}
{"molecule": "c1cc(-c2cnn3cc(-c4ccc(OCCN5CCCCC5)cc4)cnc23)ccn1", "note": "[Compound C]", "values": [{"measurement": "phosphorylated GSK-3β in surfactant soluble fraction", "setting": "GSK-3β (beta)", "result": "detected"}]}
{"molecule": "CC(C)C[C@@H](C=O)NC(=O)[C@H](CC(C)C)NC(=O)[C@H](CC(C)C)NC(=O)OCc1ccccc1", "note": "[MG132] (Cbz-Leu-Leu-Leu-aldehyde)", "values": [{"measurement": "induction of adiponectin expression (mRNA)", "setting": "B103 neuroblastoma cells [1]", "result": "increased"}]}
{"molecule": "C[S+]([O-])c1ccc(-c2nc(-c3ccncc3)c(-c3ccc(F)cc3)[nH]2)cc1", "note": "(stereo not drawn) [SB203580]", "values": [{"measurement": "phosphorylated GSK-3β in surfactant soluble fraction", "setting": "GSK-3β (beta)", "result": "not detected"}]}
{"molecule": "APN siRNA: Rat adiponectin siRNA, sense strand SEQ. No. 15, antisense strand SEQ. No. 16 (sense CAAUGACUCUACAUUUACATT; antisense UGUAAAUGUAGAGUCAUUGTT; RNA strands with tt 3' overhangs, overhang chemistry not given here, further chemistry not given here)", "values": [{"measurement": "thioflavin T staining (aggregation of protein)", "setting": "[2]", "result": "thioflavin T-positive"}, {"measurement": "α-synuclein in the formic acid soluble fraction", "setting": "[3]", "result": "also detected"}, {"measurement": "proteasomal activity", "setting": "B103 neuroblastoma cells [4]", "result": "low"}]}
{"molecule": "B1", "values": [{"measurement": "amount of α-synuclein aggregates in SDS soluble fraction", "setting": "α (alpha)S tg mouse [5]", "result": "decreased significantly"}, {"measurement": "adverse effects", "setting": "α (alpha)S tg mouse [6]; continuous nasal administration", "result": "not observed particularly"}, {"measurement": "growth of astrocyte in cerebral cortex", "setting": "α (alpha)S tg mouse [6]; [8]", "result": "hardly detected"}, {"measurement": "α-synuclein aggregates in olfactory bulb", "setting": "α (alpha)S tg mouse [6]; [8]", "result": "hardly detected"}, {"measurement": "α-synuclein aggregates in thalamus", "setting": "α (alpha)S tg mouse [6]; [8]", "result": "hardly detected"}, {"measurement": "GFAP in surfactant insoluble fraction", "setting": "α (alpha)S tg mouse [7]", "result": "observed less"}]}
